# In US20250275959A1, “COMPOUNDS AND METHODS OF THEIR USE” (LEXICON PHARMACEUTICALS, INC., priority 2024, published 2025):
# What was measured:
# [1] = target: T1, hACSL5 (Homo sapiens (Human), UniProt Q9ULC5); experiment: Cell-based assay (CBA) with B12FA in hACSL5-transfected Expi293F / FlpIn TRex293 cells; conditions: hACSL5-expressing cells
# From the text: To assess the cell penetration and cellular activity of the compounds, a cell-based assay (CBA) was used to detect compound potency in living cells. The assay utilized the fluorescent fatty acid analogue B12FA, a boron-dipyrromethene (BODIPY™) labelled C12 fatty acid that can be incorporated into glycerophosphocholine in the cytoplasmic oil droplets of live cells. A concentration-dependent, red-shifted fluorescence can be induced by the formation of BODIPY™ excimers in the oil droplets.
# Expi293F cells transfected with full length hACSL5 plasmid were selected using 1 mg/mL G418 culture medium and clones were selected by in vitro whole cell lysate (WCL) assay. The cell passage number used in the Expi293 CBA assay could not be used beyond 10 passages due to a decrease in hACSL5 expression. Therefore, a CBA using FlpIn TRex293 cells for inducible expression of hACSL5 was also established.
# FlpIn TRex293 cells transfected with hACSL5 plasmid were selected in culture medium containing 15 µg/ml Blasticidin and 150 µg/ml Hygromycin. For cell-based assays, stable transfected hACSL5 cells were seeded onto a 96-well plate at 30-50k/well and incubated overnight. For the inducible system, […] tetracycline (or doxycycline) was added to culture medium of FlpIn TRex293 hACSL5 cells on the day before the assay to induce expression of hACSL5. The next day, growth media was replaced with culture medium without FBS and glucose (DMEM glucose (-), ThermoFisher) and cells were incubated for an hour before treating cells with serial diluted compounds containing 20 µM B12FA (ThermoFisher) for another 3 hours in the above medium. Cells were then fixed in 4% formaldehyde for 10 minutes and washed twice with PBS. The plate was read using the Cytation 5 imaging system with an excitation wavelength of 485 nm and observed emissions at 630 nm and 520 nm. The percentage of inhibition was calculated as: […]
# wherein A is the ratio of emission intensities at 630 nm/520 nm in the absence of inhibitor (maximum ratio); B is the ratio of the intensities at those wavelengths in the presence of […] of the test compound or non-induced cells (minimum ratio); and X is the ratio of the intensities at a given compound concentration.
# (§1) Concentration-response titration points for each compound tested were filled to the Hill equation yielding concentrations of half maximal inhibition […] and maximal inhibition values.
# Target sequence in this assay (Q9ULC5 whole entry): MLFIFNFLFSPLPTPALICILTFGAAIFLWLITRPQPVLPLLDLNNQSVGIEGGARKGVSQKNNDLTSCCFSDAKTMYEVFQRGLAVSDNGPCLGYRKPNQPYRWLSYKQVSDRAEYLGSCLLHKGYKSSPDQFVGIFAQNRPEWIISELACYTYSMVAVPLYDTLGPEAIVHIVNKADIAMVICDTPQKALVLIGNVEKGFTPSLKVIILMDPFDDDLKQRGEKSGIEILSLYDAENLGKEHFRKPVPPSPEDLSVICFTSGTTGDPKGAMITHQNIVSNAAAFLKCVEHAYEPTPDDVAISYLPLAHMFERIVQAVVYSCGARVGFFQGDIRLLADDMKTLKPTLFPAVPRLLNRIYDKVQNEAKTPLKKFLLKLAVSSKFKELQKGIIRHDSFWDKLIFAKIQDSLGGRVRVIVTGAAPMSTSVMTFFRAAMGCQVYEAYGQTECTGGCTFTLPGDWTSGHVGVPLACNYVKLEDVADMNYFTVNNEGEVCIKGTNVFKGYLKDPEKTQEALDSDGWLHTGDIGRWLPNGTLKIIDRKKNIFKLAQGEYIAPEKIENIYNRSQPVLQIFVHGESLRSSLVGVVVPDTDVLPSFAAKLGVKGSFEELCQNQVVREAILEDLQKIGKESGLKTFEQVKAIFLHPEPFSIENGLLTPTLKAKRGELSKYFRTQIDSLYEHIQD
# [2] = target: T1, hACSL5; experiment: Human ACSL5 coupled enzyme Amplex Red assay; format: biochemical; conditions: read-out: hACSL5 IC50
# Method: Human ACSL5 (33-683) was cloned with a C-terminal 6 His tag and expressed in insect cells (sf9) as per standard insect cell expression protocols. Human ACSL5 was enriched by affinity nickel affinity chromatography followed by Superdex S200 gel filtration column equilibrated in 20 mM HEPES pH 7.8, 500 mM NaCl, 1 mM TCEP, 5% glycerol, 0.1% Triton X^100.
# Inhibition of ACSL5 enzyme activity was monitored with a coupled enzyme Amplex Red assay.
# The assay is carried out in 384-well microtiterplates. In a total volume of […], compounds are preincubated with 20 nM ACSL5, in a buffer containing 150 mM MOPS-NaOH, 12 mM MgCl2, 0.03% (v/v) Triton X-100, 2.79 U mL-1 Peroxidase and 24 U mL-1 Acyl-CoA Oxidase (pH 7.6). The reaction is started by the addition of substrate and co factors (25 μM oleate, 30 μM CoA, 1 mM ATP and 50 μM Amplex Red) and the fluorescence detected after 10 minutes at 25° C. with a fluorescence reader (BMG-Fluostar; BMG-Technologies) using an excitation wavelength of 535 nm and an emission wavelength of 590 nm.
# as §1
# Target sequence in this assay (Q9ULC5 33-683): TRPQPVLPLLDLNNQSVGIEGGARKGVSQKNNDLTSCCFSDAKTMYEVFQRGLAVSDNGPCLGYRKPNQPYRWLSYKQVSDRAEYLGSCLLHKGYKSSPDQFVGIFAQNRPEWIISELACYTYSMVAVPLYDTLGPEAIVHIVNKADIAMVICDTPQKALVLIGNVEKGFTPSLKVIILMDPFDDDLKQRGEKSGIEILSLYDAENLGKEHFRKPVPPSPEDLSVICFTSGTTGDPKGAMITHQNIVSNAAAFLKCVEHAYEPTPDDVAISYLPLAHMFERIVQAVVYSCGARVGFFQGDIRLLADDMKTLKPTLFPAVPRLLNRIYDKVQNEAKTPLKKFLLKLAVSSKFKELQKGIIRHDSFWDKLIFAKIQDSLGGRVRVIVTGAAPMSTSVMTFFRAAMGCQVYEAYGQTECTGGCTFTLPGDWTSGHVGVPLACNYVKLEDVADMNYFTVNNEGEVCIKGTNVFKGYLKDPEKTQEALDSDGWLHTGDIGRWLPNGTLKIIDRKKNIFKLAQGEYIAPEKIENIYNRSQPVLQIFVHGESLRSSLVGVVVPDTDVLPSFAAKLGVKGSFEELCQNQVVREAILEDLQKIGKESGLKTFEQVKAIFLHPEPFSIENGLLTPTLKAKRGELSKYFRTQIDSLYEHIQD
SMILES,IC50 [1],IC50 [2]
"CC[C@@H](Oc1ccc(C(=O)NS(=O)(=O)N2CCC(OC3CCN(C)CC3)CC2)c(F)c1F)c1ccc(OC2CC(OC)C2)cn1 (stereo partly drawn) [2,3-difluoro-4-((R)-1-(5-((1R,3R)-3-methoxycyclobutoxy)pyridin-2-yl)propoxy)-N-((4-((1-methylpiperidin-4-yl)oxy)piperidin-1-yl)sulfonyl)benzamide]",100 to 500 nM,< 100 nM
"CC[C@@H](Oc1ccc(C(=O)NS(=O)(=O)N2CCN(C)CC2)c(F)c1F)c1ccc(OC2CC(OC)C2)cn1 (stereo partly drawn) [2,3-difluoro-4-((R)-1-(5-((1R,3R)-3-methoxycyclobutoxy)pyridin-2-yl)propoxy)-N-((4-methylpiperazin-1-yl)sulfonyl)benzamide]",100 to 500 nM,100 to 500 nM
"CC[C@@H](Oc1ccc(C(=O)NS(=O)(=O)c2ccc(OC3CCCN(C)C3)cc2)c(F)c1F)c1ccc(Oc2ccccn2)cn1 (stereo partly drawn) [2,3-difluoro-N-((4-((1-methylpiperidin-3-yl)oxy)phenyl)sulfonyl)-4-((R)-1-(5-(pyridin-2-yloxy)pyridin-2-yl)propoxy)benzamide]",< 100 nM,< 100 nM
"CC(Oc1ccc(C(=O)NS(=O)(=O)c2cnn(CCN(C)C)c2)c(F)c1F)c1cccc(OCC2CC2)c1 (stereo not shown) [4-(1-(3-(cyclopropylmethoxy)phenyl)ethoxy)-N-((1-(2-(dimethylamino)ethyl)-1H-pyrazol-4-yl)sulfonyl)-2,3-difluorobenzamide]",> 500 nM,100 to 500 nM
"CC[C@@H](Oc1ccc(C(=O)NS(=O)(=O)N2CCN(C)CC2)c(F)c1F)c1ccc(OC2CC(OC(F)F)C2)cn1 (stereo partly drawn) [4-((R)-1-(5-((1R,3R)-3-(difluoromethoxy)cyclobutoxy)pyridin-2-yl)propoxy)-2,3-difluoro-N-((4-methylpiperazin-1-yl)sulfonyl)benzamide]",100 to 500 nM,100 to 500 nM
"CC[C@@H](Oc1ccc(C(=O)NS(=O)(=O)N2CCC(OC3CCN(C)CC3)CC2)cc1C(F)(F)F)c1ccc(OC2CC(OC)C2)cn1 (stereo partly drawn) [4-((R)-1-(5-((1R,3R)-3-methoxycyclobutoxy)pyridin-2-yl)propoxy)-N-((4-((1-methylpiperidin-4-yl)oxy)piperidin-1-yl)sulfonyl)-3-(trifluoromethyl)benzamide]",100 to 500 nM,< 100 nM
"CC[C@@H](Oc1ccc(C(=O)NS(=O)(=O)N2CCN(C)CC2)cc1C(F)(F)F)c1ccc(OC2CC(OC)C2)cn1 (stereo partly drawn) [4-((R)-1-(5-((1R,3R)-3-methoxycyclobutoxy)pyridin-2-yl)propoxy)-N-((4-methylpiperazin-1-yl)sulfonyl)-3-(trifluoromethyl)benzamide]",100 to 500 nM,100 to 500 nM
"CC[C@@H](Oc1ccc(C(=O)NS(=O)(=O)c2ccc(OCC[C@H]3CCCCN3C)cc2)c(F)c1F)c1ccc(OCC2CC2)cn1 [4-((R)-1-(5-(cyclopropylmethoxy)pyridin-2-yl)propoxy)-2,3-difluoro-N-((4-(2-((R)-1-methylpiperidin-2-yl)ethoxy)phenyl)sulfonyl)benzamide]",100 to 500 nM,< 100 nM
"CC[C@@H](Oc1ccc(C(=O)NS(=O)(=O)c2ccc(OCCN3CC[C@H](F)C3)cc2)c(F)c1F)c1ccc(OCC2CC2)cn1 [4-((R)-1-(5-(cyclopropylmethoxy)pyridin-2-yl)propoxy)-2,3-difluoro-N-((4-(2-((S)-3-fluoropyrrolidin-1-yl)ethoxy)phenyl)sulfonyl)benzamide]",100 to 500 nM,< 100 nM
"CC[C@@H](Oc1ccc(C(=O)NS(=O)(=O)c2ccc(OC3CCN(C)C(C)(C)C3)cc2)c(F)c1F)c1ccc(OCC2CC2)cn1 (stereo partly drawn) [4-((R)-1-(5-(cyclopropylmethoxy)pyridin-2-yl)propoxy)-2,3-difluoro-N-((4-((1,2,2-trimethylpiperidin-4-yl)oxy)phenyl)sulfonyl)benzamide]",100 to 500 nM,< 100 nM
"CC[C@@H](Oc1ccc(C(=O)NS(=O)(=O)c2ccc(OC3CCCN(C)C3)cc2)c(F)c1F)c1ccc(OCC2CC2)cn1 (stereo partly drawn) [4-((R)-1-(5-(cyclopropylmethoxy)pyridin-2-yl)propoxy)-2,3-difluoro-N-((4-((1-methylpiperidin-3-yl)oxy)phenyl)sulfonyl)benzamide]",< 100 nM,< 100 nM
"CC[C@@H](Oc1ccc(C(=O)NS(=O)(=O)c2ccc(O[C@@H]3C[C@H]4C[C@@H]3CN4C)cc2)c(F)c1F)c1ccc(OCC2CC2)cn1 [4-((R)-1-(5-(cyclopropylmethoxy)pyridin-2-yl)propoxy)-2,3-difluoro-N-((4-(((1R,4R,5R)-2-methyl-2-azabicyclo[2.2.1]heptan-5-yl)oxy)phenyl)sulfonyl)benzamide]",> 500 nM,< 100 nM
"CC[C@@H](Oc1ccc(C(=O)NS(=O)(=O)c2ccc(O[C@@H]3CCN(C)C3)cc2)c(F)c1F)c1ccc(OCC2CC2)cn1 [4-((R)-1-(5-(cyclopropylmethoxy)pyridin-2-yl)propoxy)-2,3-difluoro-N-((4-(((R)-1-methylpyrrolidin-3-yl)oxy)phenyl)sulfonyl)benzamide]",100 to 500 nM,< 100 nM
"CC[C@@H](Oc1ccc(C(=O)NS(=O)(=O)c2ccc(O[C@H]3CCN(C)C3)cc2)c(F)c1F)c1ccc(OCC2CC2)cn1 [4-((R)-1-(5-(cyclopropylmethoxy)pyridin-2-yl)propoxy)-2,3-difluoro-N-((4-(((S)-1-methylpyrrolidin-3-yl)oxy)phenyl)sulfonyl)benzamide]",100 to 500 nM,< 100 nM
"CC[C@@H](Oc1ccc(C(=O)NS(=O)(=O)N2CC3CC2CC3OCCN2CCCC2)c(F)c1F)c1ccc(OCC2CC2)cn1 (stereo partly drawn) [4-((R)-1-(5-(cyclopropylmethoxy)pyridin-2-yl)propoxy)-2,3-difluoro-N-((5-(2-(pyrrolidin-1-yl)ethoxy)-2-azabicyclo[2.2.1]heptan-2-yl)sulfonyl)benzamide]",100 to 500 nM,< 100 nM
"CC[C@@H](Oc1ccc(C(=O)NS(=O)(=O)N2CC3CC(C2)N3C)c(F)c1F)c1ccc(OCC2CC2)cn1 [4-((R)-1-(5-(cyclopropylmethoxy)pyridin-2-yl)propoxy)-2,3-difluoro-N-((6-methyl-3,6-diazabicyclo[3.1.1]heptan-3-yl)sulfonyl)benzamide]",< 100 nM,< 100 nM
"CC[C@@H](Oc1ccc(C(=O)NS(=O)(=O)N2CC3CCC(C2)N3C)c(F)c1F)c1ccc(OCC2CC2)cn1 [4-((R)-1-(5-(cyclopropylmethoxy)pyridin-2-yl)propoxy)-2,3-difluoro-N-((8-methyl-3,8-diazabicyclo[3.2.1]octan-3-yl)sulfonyl)benzamide]",< 100 nM,< 100 nM
"CC[C@@H](Oc1ccc(C(=O)NS(=O)(=O)N2C[C@H]3C[C@@H]2CN3C)c(F)c1F)c1ccc(OCC2CC2)cn1 [4-((R)-1-(5-(cyclopropylmethoxy)pyridin-2-yl)propoxy)-2,3-difluoro-N-(((1R,4R)-5-methyl-2,5-diazabicyclo[2.2.1]heptan-2-yl)sulfonyl)benzamide]",100 to 500 nM,100 to 500 nM
"CC[C@@H](Oc1ccc(C(=O)NS(=O)(=O)N2C[C@@H]3C[C@H]2CN3C)c(F)c1F)c1ccc(OCC2CC2)cn1 [4-((R)-1-(5-(cyclopropylmethoxy)pyridin-2-yl)propoxy)-2,3-difluoro-N-(((1S,4S)-5-methyl-2,5-diazabicyclo[2.2.1]heptan-2-yl)sulfonyl)benzamide]",100 to 500 nM,100 to 500 nM
"CC[C@@H](Oc1ccc(C(=O)NS(=O)(=O)N2C[C@@H](C)N(C)[C@@H](C)C2)c(F)c1F)c1ccc(OCC2CC2)cn1 [4-((R)-1-(5-(cyclopropylmethoxy)pyridin-2-yl)propoxy)-2,3-difluoro-N-(((3S,5R)-3,4,5-trimethylpiperazin-1-yl)sulfonyl)benzamide]",< 100 nM,< 100 nM
